These results are taken from US20040242502A1, “Semi-synthetic saponin analogs with carrier and immune stimulatory activities for DNA and RNA vaccines” (Galenica Pharmaceuticals, Inc., priority 2003, published 2004).

The assay has as its system Female Balb/c mice. The experiment in a line: Immunization of Balb/c mice with OVA cDNA in the presence and absence of DMPS; anti-OVA antibody ELISA of serum. The assay is classed as in vivo. To be noted: anti-OVA ELISA on OVA coated plates, serum dilution 1:100, bled 14 days after last immunization, i.m. days 1 and 15, 20 OVA DNA alone or +50 DMPS. The protocol:
Female Balb/c mice were immunized intramuscularly at days 1 and 15 with 0.2 mL of phosphate buffered saline solution (PBS) containing 20 μg of chicken OVA cDNA alone or with 50 μg of 3-dimethylamino-1-propylamino-DS-saponin (DMPS). The complete OVA cDNA was sub-cloned into a mammalian expression vector containing the human β-actin promotor and the neomycin resistant gene, under control of the SV40 promotor, to yield pAC-Neo-OVA. Negative control animals received PBS only. Animals were bled 14 days after the last immunization. Total IgG and IgG2a were determined by ELISA using OVA coated plates and a serum dilution of 1:100. The serum dilution was incubated at 37° C. for 1 hour and the plates were washed. After incubation with anti IgG-HRP conjugate, the plates were washed and developed with a TMB substrate for 15 minutes at room temperature, stopped by the addition of 0.18 M sulfuric acid, and read at 450 nm.

Several values for one entry are separate records, joined by “and”; a condition that tells them apart may be missing. Equal values may be shown once.

For “3-dimethylamino-1-propylamino-DS-saponin [DMPS]”, the “Absorbance (450 nm), Average” value (average of 5 mice ± spread) is listed as 0.188 ± 0.093. Also, for the setting “mice 1-5”, the “Absorbance (450 nm), individual mice” value is 0.400 and 0.210 and 0.092 and 0.140 and 0.100.
